Assays:
Format in all cases: functional
NCI-H23 = assay: Growth inhibition of human NCI-H23 cells at 10 uM after 48 hrs by sulforhodamine B assay; settings: NCI-H23, 48 h, values are per cent of control
[1] = Growth inhibition of human LOXIMVI cells at 10 uM after 48 hrs by sulforhodamine B assay; settings: LOX IMVI, values are per cent of control
[2] = Growth inhibition of human HCT15 cells at 10 uM after 48 hrs by sulforhodamine B assay; settings: HCT-15, 48 h, values are per cent of control
[3] = Growth inhibition of human OVCAR8 cells at 10 uM after 48 hrs by sulforhodamine B assay; settings: OVCAR-8, 48 h, values are per cent of control
NCI-H226 = assay: Growth inhibition of human NCI-H226 cells at 10 uM after 48 hrs by sulforhodamine B assay; settings: NCI-H226, 48 h, values are per cent of control
M14 = assay: Growth inhibition of human M14 cells at 10 uM after 48 hrs by sulforhodamine B assay; settings: M14, 48 h, values are per cent of control
[4] = Growth inhibition of human SNB75 cells at 10 uM after 48 hrs by sulforhodamine B assay; settings: SNB-75, 48 h, values are per cent of control
A498 = assay: Growth inhibition of human A498 cells at 10 uM after 48 hrs by sulforhodamine B assay; settings: A498, 48 h, values are per cent of control
NCI-H460 = assay: Growth inhibition of human NCI-H460 cells at 10 uM after 48 hrs by sulforhodamine B assay; settings: NCI-H460, 48 h, values are per cent of control
[5] = Growth inhibition of human SW620 cells at 10 uM after 48 hrs by sulforhodamine B assay; settings: SW-620, 48 h, values are per cent of control
[6] = Growth inhibition of human SF295 cells at 10 uM after 48 hrs by sulforhodamine B assay; settings: SF-295, 48 h, values are per cent of control
NCI-H322M = assay: Growth inhibition of human NCI-H322M cells at 10 uM after 48 hrs by sulforhodamine B assay; settings: values are per cent of control
HT-29 = assay: Growth inhibition of human HT-29 cells at 10 uM after 48 hrs by sulforhodamine B assay; settings: HT-29, 48 h, values are per cent of control
K562 = assay: Growth inhibition of human K562 cells at 10 uM after 48 hrs by sulforhodamine B assay; settings: K562, 48 h, values are per cent of control
[7] = Growth inhibition of human OVCAR5 cells at 10 uM after 48 hrs by sulforhodamine B assay; settings: OVCAR-5, 48 h, values are per cent of control
SN12C = assay: Growth inhibition of human SN12C cells at 10 uM after 48 hrs by sulforhodamine B assay; settings: values are per cent of control
SK-MEL-2 = assay: Growth inhibition of human SK-MEL-2 cells at 10 uM after 48 hrs by sulforhodamine B assay; settings: SK-MEL-2, 48 h, values are per cent of control
SR = assay: Growth inhibition of human SR cells at 10 uM after 48 hrs by sulforhodamine B assay; settings: values are per cent of control
[8] = Growth inhibition of human Hs 578T cells at 10 uM after 48 hrs by sulforhodamine B assay; settings: values are per cent of control
[9] = Growth inhibition of human COLO205 cells at 10 uM after 48 hrs by sulforhodamine B assay; settings: COLO 205, 48 h, values are per cent of control
[10] = Growth inhibition of human OVCAR4 cells at 10 uM after 48 hrs by sulforhodamine B assay; settings: OVCAR-4, 48 h, values are per cent of control
[11] = Growth inhibition of human HCT116 cells at 10 uM after 48 hrs by sulforhodamine B assay; settings: HCT-116, 48 h, values are per cent of control
786-0 = assay: Growth inhibition of human 786-0 cells at 10 uM after 48 hrs by sulforhodamine B assay; settings: 786-0, 48 h, values are per cent of control
[12] = Growth inhibition of human HOP62 cells at 10 uM after 48 hrs by sulforhodamine B assay; settings: HOP-62, 48 h, values are per cent of control
SK-MEL-5 = assay: Growth inhibition of human SK-MEL-5 cells at 10 uM after 48 hrs by sulforhodamine B assay; settings: SK-MEL-5, 48 h, values are per cent of control
[13] = Growth inhibition of human IGROV1 cells at 10 uM after 48 hrs by sulforhodamine B assay; settings: IGROV-1, 48 h, values are per cent of control
[14] = Growth inhibition of human UO31 cells at 10 uM after 48 hrs by sulforhodamine B assay; settings: UO-31, 48 h, values are per cent of control
MDA-MB-231 = assay: Growth inhibition of human MDA-MB-231 cells at 10 uM after 48 hrs by sulforhodamine B assay; settings: MDA-MB-231, 48 h, values are per cent of control
[15] = Growth inhibition of human BT549 cells at 10 uM after 48 hrs by sulforhodamine B assay; settings: BT-549, 48 h, values are per cent of control
[16] = Growth inhibition of human SNB19 cells at 10 uM after 48 hrs by sulforhodamine B assay; settings: SNB-19, 48 h, values are per cent of control
SK-MEL-28 = assay: Growth inhibition of human SK-MEL-28 cells at 10 uM after 48 hrs by sulforhodamine B assay; settings: SK-MEL-28, 48 h, values are per cent of control
A549 = assay: Growth inhibition of human A549/ATCC cells at 10 uM after 48 hrs by sulforhodamine B assay; settings: A549, 48 h, values are per cent of control
[17] = Growth inhibition of human SF539 cells at 10 uM after 48 hrs by sulforhodamine B assay; settings: SF-539, 48 h, values are per cent of control
KM12 = assay: Growth inhibition of human KM12 cells at 10 uM after 48 hrs by sulforhodamine B assay; settings: KM12, 48 h, values are per cent of control
ACHN = assay: Growth inhibition of human ACHN cells at 10 uM after 48 hrs by sulforhodamine B assay; settings: values are per cent of control
[18] = Growth inhibition of human DU145 cells at 10 uM after 48 hrs by sulforhodamine B assay; settings: DU-145, 48 h, values are per cent of control
[19] = Growth inhibition of human UACC62 cells at 10 uM after 48 hrs by sulforhodamine B assay; settings: UACC-62, 48 h, values are per cent of control
[20] = Growth inhibition of human Caki1 cells at 10 uM after 48 hrs by sulforhodamine B assay; settings: CAKI-1, 48 h, values are per cent of control
MDA-MB-435 = assay: Growth inhibition of human MDA-MB-435 cells at 10 uM after 48 hrs by sulforhodamine B assay; settings: MDA-MB-435, 48 h, values are per cent of control
[21] = Growth inhibition of human RXF393 cells at 10 uM after 48 hrs by sulforhodamine B assay; settings: RXF 393, 48 h, values are per cent of control

Row | SMILES | growth, % of control at 10 µM (NCI-H23) [%] | growth, % of control at 10 µM [1] [%] | growth, % of control at 10 µM [2] [%] | growth, % of control at 10 µM [3] [%] | growth, % of control at 10 µM (NCI-H226) [%] | growth, % of control at 10 µM (M14) [%] | growth, % of control at 10 µM [4] [%] | growth, % of control at 10 µM (A498) [%] | growth, % of control at 10 µM (NCI-H460) [%] | growth, % of control at 10 µM [5] [%] | growth, % of control at 10 µM [6] [%] | growth, % of control at 10 µM (NCI-H322M) [%] | growth, % of control at 10 µM (HT-29) [%] | growth, % of control at 10 µM (K562) [%] | growth, % of control at 10 µM [7] [%] | growth, % of control at 10 µM (SN12C) [%] | growth, % of control at 10 µM (SK-MEL-2) [%] | growth, % of control at 10 µM (SR) [%] | growth, % of control at 10 µM [8] [%] | growth, % of control at 10 µM [9] [%] | other results
1 | COc1ccc(/C(C#N)=C/c2ccc3c(c2)OCCO3)cc1OC | 46.8 | 44.9 | 31.6 | 30.1 | 71.1 | 19.7 | 2.2 | -4.1 | 12.4 | 15.5 | -14 | 34.5 | 6.6 | 11.6 | 73.5 | 56.7 | 19.4 | 1.8 | 16.3 | -1.3 | growth, % of control at 10 µM [10]: 69.3%; growth, % of control at 10 µM [11]: 22.3%; growth, % of control at 10 µM (786-0): 39.3%; growth, % of control at 10 µM [12]: 36.9%; growth, % of control at 10 µM (SK-MEL-5): 16.8%; growth, % of control at 10 µM [13]: 49.5%; growth, % of control at 10 µM [14]: 41.8%; growth, % of control at 10 µM (MDA-MB-231): 63%; growth, % of control at 10 µM [15]: 19.2%; growth, % of control at 10 µM [16]: 53.2%; growth, % of control at 10 µM (SK-MEL-28): 61.7%; growth, % of control at 10 µM (A549): 40%; growth, % of control at 10 µM [17]: 5.6%; growth, % of control at 10 µM (KM12): 30.6%; growth, % of control at 10 µM (ACHN): 51.3%; growth, % of control at 10 µM [18]: 20.7%; growth, % of control at 10 µM [19]: 43.7%; growth, % of control at 10 µM [20]: 17.6%; growth, % of control at 10 µM (MDA-MB-435): -17.6%; growth, % of control at 10 µM [21]: 14.9%
2 | N#C/C(=C\c1cc(F)cc(F)c1)c1ccc2c(c1)OCO2 | 103 | 105 | 99.4 | 96.7 | 102 | 99 | 112 | 111 | 103 | 105 | 98.5 | 121 | 109 | 106 | 103 | 106 | 119 | 84.6 | 122 | 105 | growth, % of control at 10 µM [10]: 107%; growth, % of control at 10 µM [11]: 97.1%; growth, % of control at 10 µM (786-0): 94.6%; growth, % of control at 10 µM [12]: 91.9%; growth, % of control at 10 µM (SK-MEL-5): 105%; growth, % of control at 10 µM [13]: 121%; growth, % of control at 10 µM [14]: 104%; growth, % of control at 10 µM (MDA-MB-231): 102%; growth, % of control at 10 µM [15]: 94.5%; growth, % of control at 10 µM [16]: 110%; growth, % of control at 10 µM (SK-MEL-28): 115%; growth, % of control at 10 µM (A549): 100%; growth, % of control at 10 µM [17]: 97.8%; growth, % of control at 10 µM (KM12): 97.6%; growth, % of control at 10 µM (ACHN): 109%; growth, % of control at 10 µM [18]: 109%; growth, % of control at 10 µM [19]: 106%; growth, % of control at 10 µM [20]: 94.2%; growth, % of control at 10 µM (MDA-MB-435): 98.2%; growth, % of control at 10 µM [21]: 98.5%

From ChEMBL document CHEMBL3792365, “Dioxol and dihydrodioxin analogs of 2- and 3-phenylacetonitriles as potent anti-cancer agents with nanomolar activity against a variety of human cancer cells” (2016)
